Laboratory results taken from EP0445062A1, “4(1H)Quinolone derivatives” (LABORATORIOS ALMIRALL SA, priority 1990, dated 1991).

Tests used:
[1] = Chemical Abstracts Vol. 71, 113122 a (1969); cited from earlier work
[2] = J. Het. Chem. 23, 1801 (1986); cited from earlier work
anaesthetized rats = assay: Vasodilator activity in anaesthetized rats (fall in mean blood pressure); format: in vivo, Wistar rats; details: Rattus norvegicus, iv; dose producing 30% fall in mean blood pressure; i.v. bolus injection; read-out: MAN BP IN THE ANAESTH. RAT ED30
Protocol: Vasodilator activity in anaesthetized rats
Male Wistar rats of weight range 300-400 g were anaesthetized with pentobarbital (60 mg/kg i.p.). The trachea was canulated to permit artificial respiration. A carotid artery and a jugular vein were cannulated to permit recording of mean arterial blood pressure and i.v. administration of drugs respectively.
Following a period of stabilisation (20 min), flosequinan or test drugs were administered by bolus injection and falls in mean blood pressure recorded. Responses were measured as the percentage fall in blood pressure over control, calculating the dose that produced an effect of 30% (ED₃₀).

male Swiss mice = assay: Acute toxicity in mice; format: in vivo; details: intraperitoneal, deaths after 48 hours, doses up to 300 mg/kg
Protocol: Acute toxicity of each compound was determined in groups of 5 male Swiss mice per dose. Administration of flosequinan and test compounds was made by the intraperitoneal route up the dose of 300 mg/kg. After 48 hours the number of deaths was noted and the dose producing 100% of deaths (LD₁₀₀) was calculated.

[3] = tested on: Conscious renal hypertensive beagle dogs; assay: Conscious renal hypertensive beagle dogs, fall in mean blood pressure after oral dosing; format: in vivo; details: oral by gavage; for CONSC.HYPERT. DOG AUC (0-4h) (1 mg/kg): 1 mg/kg po; for CONSC.HYPERT. DOG AUC (0-4h) at mg/kg po: dose not given
Protocol: Conscious renal hypertensive beagle dogs
Male beagle dogs were made hypertensive by the method of Page (J.Amer.Med.Assoc.(1939),113,2046). Two months later, these animals were prepared with exteriorized carotid loops (Gristwood et al., Br.J.Pharmacol. (1988),93,893) three weeks before using for experimentation. Animals were fasted 17 hours before administration of flosequinan or test compounds orally. Animals were then placed in restraints and allowed to settle for 1 hour. Mean blood pressure (MBP) was measured by puncturing the carotid loop with a 18G needle attached to a pressure transducer. Drugs (suspended in 1% methylcellulose + 0.05% Tween 80) were given orally by gavage at different doses, and mean blood pressure was measured over 4 hours using a polygraph. Drug responses were measured by calculating the area under the curve of percentage fall in mean blood pressure and time (units= % fall in MBP x hours) (Allen et al., J.Clin.Pharmacol.(1982),1S-23S).

[4] = tested on: Guinea-pig isolated tracheal rings; assay: Guinea-pig isolated tracheal rings (spontaneous tone), relaxation; design: species or system guinea-pigs; details: Cavia porcellus, concentration producing 50% relaxation, isoprenaline 10^-6 M response = 100%, read-out: TRACHEAL RING EC50
Protocol: Guinea-pig isolated tracheal rings (spontaneaus tone)
Male guinea-pigs (400-500 g) were killed, and their tracheae were removed and cut into pairs of rings. The rings were then mounted in organ baths containing Krebs-Henseleit solution at 37°C and oxygenated with […] under 1 g resting tension (Allen et al., Br.J.Pharmacol.(1986),89,395). After a 1 hour stabilization period, responses to isoprenaline 10⁻⁶ M were obtained. Tissues were then washed and after a period for restabilization (20 min) the effects of test drugs and flosequinan were investigated by adding cumulative concentrations of these to the baths.
Responses were measured as the percentage of the relaxation response to isoprenaline 10⁻⁶ M. The concentration producing a 50% relaxation taking isoprenaline responses as 100% (EC₅₀) was calculated.

[5] = tested on: Guinea-pig isolated right ventricular strips; assay: Guinea-pig isolated right ventricular strips, increase in developed tension; design: species or system guinea-pigs; details: Cavia porcellus, stimulated at 1 Hz; for activation at 10 µM: percentage increase in developed tension at 10^-5 M, read-out: VENTRICULAR STRIP % at 10-5 M; for activation at 1 µM: percentage increase in developed tension at 10^-6M, read-out: VENTRICULAR STRIP % (10-6M)
Protocol: Guinea-pig isolated right ventricular strips
Male guinea-pigs of weight 400-500 g were killed, their hearts were removed and 2 ventricular preparations (ca 1 cm x 1 mm) cut from the right bide. There were then mounted in organ baths containing modified Krebs-Henseleit solution at 37°C and continually aereated with […]. The preparations were placed under 1 g resting tension and electrically stimulated to contract at 1 Hz whilst force of contraction was measured using an isometric force transducer (Gristwood and Owen, Br.J.Pharmacol. (1985),87,91P). Preparations were equilibrated for 60 min during which they were washed every 15 min with fresh buffer. Flosequinan and test compounds were added to the organ baths from 10^-6 to 10^-4 M concentrations and responses measured as percentage increases in developed tension.

| SMILES | pharmacological activities [1] | antibacterial activity [2] | ED30 (anaesthetized rats) [mg/kg] | LD100 IN MICE (male Swiss mice) [mg/kg ip] | CONSC.HYPERT. DOG AUC (0-4h) (1 mg/kg) [3] | EC50 [4] [nM] | activation at 10 µM [5] [%] | CONSC.HYPERT. DOG AUC (0-4h) at mg/kg po [3] [% fall in MBP x hours] | activation at 1 µM [5] [%] | activation at 100 µM ([5]; percentage increase in developed tension at 10^-4M, read-out: VENTRICULAR STRIP % (10-4M)) [%] |
| --- | --- | --- | --- | --- | --- | --- | --- | --- | --- | --- |
| Cn1cc(N)c(=O)c2ccccc21 [1-methyl-3-amino-4(1H)quinolone] | no appreciable pharmacological activities | – | – | – | – | – | – | – | – | – |
| CCn1cc(NS(C)(=O)=O)c(=O)c2cc(F)c(Cl)cc21 [A] | – | does not exhibit any interesting antibacterial activity | – | – | – | – | – | – | – | – |
| Cn1cc(NS(C)(=O)=O)c(=O)c2ccccc21 [Compound 1, 1-methyl-3-methylsulfonamido-4(1H) quinolone] | – | – | 0.02 | >300 | 54 (1 mg/kg) % fall in MBP x hours | 240 | 82 | – | – | – |
| Cn1cc(NS(C)(=O)=O)c(=O)c2cc(F)ccc21 [Compound 3, 1-methyl-3-methylsulfonylamino-6-fluoro-4(1H)quinolone] | – | – | 0.06 | >300 | 51 (1 mg/kg) % fall in MBP x hours | 600 | 53 | – | – | – |
| Cn1cc(NS(C)(=O)=O)c(=O)c2ccc(Cl)cc21 [Compound 4, 1-methyl-3-methylsulfonylamino-7-chloro-4(1H)quinolone] | – | – | 0.01 | >300 | – | 500 | – | 68 | 55 | – |
| Cn1cc(NS(C)(=O)=O)c(=O)c2ccc(C(F)(F)F)cc21 [Compound 5] | – | – | 0.03 | >300 | – | 420 | – | – | 35 | – |
| Cn1cc(NS(C)(=O)=O)c(=O)c2ccc(F)cc21 [Compound 6, 1-methyl-3-methylsulfonylamino-7-fluoro-4(1H)quinolone] | – | – | 0.01 | >300 | – | 360 | 86 | 65 | – | – |
| COc1ccc2c(c1)c(=O)c(NS(C)(=O)=O)cn2C [Compound 11] | – | – | 0.05 | >300 | – | 1600 | 52 | – | – | – |
| Cn1cc([S+](C)[O-])c(=O)c2ccc(F)cc21 (centres unmarked) [FLOSEQUINAN, 7-fluoro-1-methyl-3-methylsulfinyl-4(1H)quinolone, reference compound] | – | – | 0.2 | 300 | – | 3000 | – | 41 | – | 75 |
